Test results published in US20210017555A1, “METHOD FOR PRODUCING 4-AMINOCINNAMIC ACID, AND VECTOR AND HOST CELL USED IN SAME” (JAPAN SCIENCE AND TECHNOLOGY AGENCY, priority 2018, published 2021).

What was measured:
[1] = Conversion of 4-nitrophenylalanine to 4-nitrocinnamic acid in 2 L jar fermenter; assay type: cell-based, Escherichia coli; conditions: 24 hours
Description: The CamPAL-producing Escherichia coli strain described in Example 1 was used (cell mass: 20 g/L to 30 g/L) was used in a reaction of converting the substrate 4-nitrophenylalanine (group weight 21 g/L) to 4-nitrocinnamic acid, using a 2 L jar fermenter (BNR-C-2LS manufactured by Maruhishi Bio Engineering Co., Ltd.) as a reactor.
Specifically, the CamPAL-producing Escherichia coli strain was precultured using 15 mL of LB medium with […] kanamycin sulfate at 28° C. for 16 hours with stirring at 300 rpm. 12 mL of this preculture liquid was inoculated to a 2 L jar fermenter containing 1.2 L TB medium with 80 mg/L kanamycin sulfate, and cultured at 30° C. for 4 hours with aeration of 3.5 L/min and stirring at 500 rpm. […] The mass of bacterial cells calculated from the value of OD600 was 30 g/L.
After completion of the culture, 21 g/L of 4-nitrophenylalanine was added to the culture medium as the substrate, and the pH was adjusted to 8.5 using a 2N NaOH aqueous solution. […] The reaction solution was collected during the reaction, and 4-nitrophenylalanine and 4-nitrocinnamic acid were quantified as follows: the reaction solution was transferred to a centrifuge tube, the supernatant was recovered by centrifugation, and the reaction product was quantified using HPLC under the above conditions.

[2] = Search for carbon source for conversion of 4-nitrocinnamic acid to 4-aminocinnamic acid; assay type: cell-based, Escherichia coli; conditions: glycerol added at 10% (compared with glucose, fructose), 2 g/L 4-nitrocinnamic acid, pH 8, 37° C., 24 hours
Description: The CamPAL-producing Escherichia coli strain described in Example 1 was first precultured for 16 hours in the same manner as in Example 2. 1 mL of this pre-cultured liquid was inoculated to 100 mL of TB medium containing 80 mg/L kanamycin sulfate, cultured at 30° C. for 4 hours with stirring at 120 rpm, and after the addition of 0.1 mM IPTG, cultured further for 16 hours. 2 g/L of 4-nitrocinnamic acid was added to the resultant culture solution, the pH was adjusted to 8 using 2N NaOH, and glucose, fructose, or glycerol was added as a carbon source at a final concentration of 10%. The cells were cultured at 37° C. for 24 hours with stirring at 300 rpm to cause reaction.
During the reaction, the reaction solution was collected, and 4-aminocinnamic acid was quantified. Specifically, the reaction solution was transferred to a centrifuge tube, the supernatant was recovered by centrifugation, and the reaction product was quantified using the HPLC.

[3] = Deammonase activity of purified enzymes by absorptiometry; assay type: biochemical; conditions: purified recombinant enzyme 2 mg/mL, 50 mM Tris-HCl pH 8.6, 0.3 to 9.6 mM substrate, 380 nm, 10 minutes
Description: • Apparatus: BECKMAN COULTER DU800 UV/Vis Spectrophotometer • Amount of enzyme: 2mg/mL • Buffer solution: 50mM Tris-HCl buffer (pH=8.6) • Concentration of substrate: 0.3mM to 9.6mM • Volume: 200μL • Measurement wavelength: From 4-nitrophenylalanine to 380 nm 4-nitrocinnamic acid: From phenylalanine to 305 nm cinnamic acid: • Measurement period: 10 minutes • Measurement temperature: 25° C.
Each of the CamPAL-, LiePAL-, and RgPAL-producing Escherichia coli strains was inoculated to 5 mL of LB medium containing 30 mg/L kanamycin sulfate, and cultured at 28° C. for 16 hours (hereinafter also may be referred to as “preculture”). […]
The enzyme activity was measured and quantified by measuring the absorbance of the reaction product at the absorption wavelength for 10 minutes using an absorptiometer.
Specifically, regarding the deammonase activity for phenylalanine, 2 mg/mL of each of the above enzymes was added to 50 mM Tris-HCl buffer (pH=8.6) containing 0.3 to 9.6 mM phenylalanine to cause reaction, and the change in absorbance at a wavelength of 305 nm resulting from the formation of cinnamic acid was measured for 10 minutes. […]

[4] = Resting-cell reaction of PAL-producing E. coli, 4-nitrophenylalanine to 4-nitrocinnamic acid; assay type: cell-based, Escherichia coli; conditions: resting cells; for amount of 4-nitrocinnamic acid in the reaction supernatant: 24 hours, 28° C., pH 8.5, 20 mM 4-nitrophenylalanine, versus control Escherichia coli
Description: The CamPAL-, LiePAL-, and RgPAL-producing Escherichia coli strains mentioned above were precultured using 3 mL of LB medium containing 40 mg/L kanamycin sulfate at 28° C. for 16 hours with stirring at 300 rpm. 1 mL of this pre-cultured liquid was inoculated to 100 mL of LB medium containing 40 mg/L of kanamycin sulfate, cultured at 30° C. for 4 hours with shaking at 120 rpm, and after the addition of 0.5 mM of IPTG, incubated further for 20 hours. The obtained bacterial cells were washed twice with a reaction buffer (100 mM Tris-HCl buffer, pH 8.5).
The resting cells obtained were suspended in a reaction buffer and reacted at 28° C. with shaking at 300 rpm. 20 mM of 4-nitrophenylalanine was added to the medium every 24 hours while the reaction was continued. The reaction supernatant was periodically collected to quantify 4-nitrophenylalanine and 4-nitrocinnamic acid.
The supernatant was transferred to a centrifuge tube, collected by centrifugation, and the reaction product was quantified using high performance liquid chromatography (HPLC).
The same experiment was also performed using the host Escherichia coli as a control.

[5] = Conversion efficiency by CamPAL at different bacteria mass and substrate mass (resting cells); assay type: cell-based, Escherichia coli; conditions: cell mass 20 g/L or 30 g/L, substrate mass 21 g/L, 37° C., pH 8.5, 24 hours
Description: The CamPAL-producing Escherichia coli strain described in Example 1 was precultured using 5 mL of LB medium containing 40 mg/L kanamycin sulfate at 28° C. for 16 hours with stirring at 300 rpm. 1 mL of this pre-cultured solution was inoculated to 100 mL of TB medium having the following composition after the addition of 80 mg/L kanamycin sulfate, and cultured at 30° C. for 4 hours with shaking at 120 rpm. After the addition of 0.1 mM of IPTG, the cells were further cultured for 20 hours, recovered from the culture solution by centrifugation, and stored at −80° C. The frozen cells thus obtained were weighed at 10 g/L, 20 g/L and 30 g/L, while the substrate 4-nitrophenylalanine was also weighed at 4.2 g/L, 21 g/L, and 42 g/L.
Each mass of the cells and each mass of the substrate were suspended in a reaction buffer (100 mM Tris-HCl buffer, pH 8.5), and a resting microbial cell reaction was carried out at 37° C. with stirring at 300 rpm. After the reaction for 24 hours, the reaction solution was collected, and the amounts of 4-nitrophenylalanine and 4-nitrocinnamic acid were quantified. For the quantification of each reaction product, the supernatant of the obtained (bacterial cell) reaction solution was transferred to a centrifuge tube, collected by centrifugation, and the reaction product was quantified using the HPLC mentioned above.

[6] = Conversion of 4-nitrophenylalanine to 4-aminocinnamic acid in 1 L jar fermenter; assay type: cell-based, Escherichia coli; conditions: glycerol 10%, pH 8.5, 37° C., 36 hours, air flow 0.02 L/min
Description: Conversion of 4-nitrophenylalanine to 4-aminocinnamic acid was carried out using a 1 L jar fermenter (manufactured by Biott: BMJ-01), in the presence of glycerol under the conditions mentioned above. Specifically, 5 mL of the preculture liquid of Example 2 was inoculated to a 1 L jar fermenter containing 0.5 L of TB medium supplemented with 80 mg/L kanamycin sulfate, and cultured at 30° C. for 4 hours, with aeration at 0.7 L/min and stirring at 645 rpm. 0.1 mM IPTG was then added, and the culturing was continued for another 20 hours.
After the completion of the culturing, 7 g/L of 4-nitrophenylalanine and glycerol at a final concentration of 10% were added to the culture solution, and the pH was adjusted to 8.5 with 2N NaOH. The reaction was carried out at 37° C. for 36 hours with an air flow rate of 0.02 L/min and stirring at 645 rpm. When the pH dropped below 8.0, 2N NaOH was added. During the reaction, the reaction solution was sampled, and 4-nitrophenylalanine, 4-nitrocinnamic acid and 4-aminocinnamic acid were quantified.

Substance | 4-nitrocinnamic acid converted from 21 g/L of 4-nitrophenylalanine ([1]; 2 L jar fermenter, cell mass 30 g/L, pH 8.5, 37° C., without aeration) [g/L] | 4-nitrocinnamic acid converted from 21 g/L of 4-nitrophenylalanine ([1]; same reaction, aeration rate 0.04 L/min) [g/L] | amount of 4-aminocinnamic acid obtained [2] | capacity to convert 4-nitrophenylalanine to 4-nitrocinnamic acid [3] | conversion of 4-nitrophenylalanine to 4-nitrocinnamic acid over time ([4]; 20 mM 4-nitrophenylalanine added every 24 hours) | amount of 4-nitrocinnamic acid in the reaction supernatant [4] | conversion efficiency of 4-nitrophenylalanine to 4-nitrocinnamic acid (yield) [5] [%] | 4-aminocinnamic acid produced from 7 g/L of 4-nitrophenylalanine [6] [g/L]
CamPAL: phenylalanine ammonia-lyase derived from Camellia sinensis, SEQ ID NO: 1, expressed in E. coli BL21(DE3) | 18 | 12 | largest amount of 4-aminocinnamic acid was obtained when glycerol was added | have a capacity to covert 4-nitrophenylalanine to 4-nitrocinnamic acid | proceeded continuously | significantly higher than that of the control Escherichia coli | ≥ 60 | 4.7
LiePAL: phenylalanine ammonia-lyase derived from Lithospermum erythrorhizon, SEQ ID NO:3, expressed in E. coli |  |  |  | have a capacity to covert 4-nitrophenylalanine to 4-nitrocinnamic acid |  | significantly higher than that of the control Escherichia coli |  | 
